Measurements taken from ChEMBL document CHEMBL1201862, “PubChem BioAssay data set” (2004).
Activity calls are given as the source filed them.

Columns and labels:
[1] = system: BJ; assay: cytotoxicity toward BJ-TERT fibroblasts, dose response, cell-based, RAS-independent, luminescence (AID 1933); format: functional; details: Homo sapiens
[2] = system: BJ; assay: cells; format: functional, cell-based; details: Homo sapiens
[3] = system: BJ; assay: cytotoxicity toward BJ-TERT-LT-ST fibroblasts, dose response, cell-based, RAS-independent, luminescence (AID 1935); format: functional; details: Homo sapiens;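 also: BJ fibroblasts immortalized with TERT plus LT and ST oncogenes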
[4] = cytotoxicity toward DRD oncogenic fibroblasts, dose response, cell-based, non-viral oncogenic, luminescence (AID 1934); format: functional; details: Homo sapiens
[5] = cytotoxicity in HEK-293T cells, dose response, cytotoxicity control for TCR NF-kB inhibitor project, luminescence, T-cell screen hits (AID 489026); format: functional, cell-based;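 also: cells exposed to compound about 14 hours before the viability readout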
[6] = A cytotoxicity screen of small molecule inhibitors of the PhoP region in Salmonella typhi identified in the primary screen. [Related pubchem assays: 1850, 1864, 1985 ]; format: functional
[7] = A High Throughput Confirmatory Assay used to Identify Novel Compounds that Inhibit Mycobacterium Tuberculosis in the absence of Glycerol.; format: functional
[8] = microbe, parasite or virus in culture; format: functional; details: Mycobacterium tuberculosis
[9] = Luminescence Cell-Based Dose Retest to Confirm Inhibitors of Cancer Stem Cells. [Related pubchem assays (depositor defined):AID2717, AID2721]; format: functional; details: Homo sapiens
[10] = molecular target: T1, Lysosomal acid glucosylceramidase (Homo sapiens, UniProt P04062); assay: Dose response cell-based high throughput screening assay to identify enhancers of beta-glucosidase activity. [Related pubchem assays: 784 ]; format: functional
T1 sequence (P04062 whole entry): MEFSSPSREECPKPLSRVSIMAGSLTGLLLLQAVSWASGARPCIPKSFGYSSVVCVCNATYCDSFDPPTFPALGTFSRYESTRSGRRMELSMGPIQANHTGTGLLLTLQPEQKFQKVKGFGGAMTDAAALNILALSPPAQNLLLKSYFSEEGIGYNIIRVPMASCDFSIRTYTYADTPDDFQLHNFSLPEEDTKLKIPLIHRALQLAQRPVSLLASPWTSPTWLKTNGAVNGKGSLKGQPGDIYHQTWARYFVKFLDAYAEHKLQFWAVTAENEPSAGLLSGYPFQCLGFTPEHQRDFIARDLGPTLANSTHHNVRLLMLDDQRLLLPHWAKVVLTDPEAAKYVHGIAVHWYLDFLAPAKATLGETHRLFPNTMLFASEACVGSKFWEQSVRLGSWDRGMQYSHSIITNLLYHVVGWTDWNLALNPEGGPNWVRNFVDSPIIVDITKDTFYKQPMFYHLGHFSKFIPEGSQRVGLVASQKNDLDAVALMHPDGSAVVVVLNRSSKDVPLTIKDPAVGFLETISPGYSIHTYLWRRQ

[11] = molecular target: T2, Replicative DNA helicase DnaB (Mycobacterium tuberculosis, UniProt P9WMR3); assay: DnaB intein splicing inhibitors, dose response, biochemical, cell-free fluorescence (AID 449749); format: functional
T2 sequence (P9WMR3 whole entry): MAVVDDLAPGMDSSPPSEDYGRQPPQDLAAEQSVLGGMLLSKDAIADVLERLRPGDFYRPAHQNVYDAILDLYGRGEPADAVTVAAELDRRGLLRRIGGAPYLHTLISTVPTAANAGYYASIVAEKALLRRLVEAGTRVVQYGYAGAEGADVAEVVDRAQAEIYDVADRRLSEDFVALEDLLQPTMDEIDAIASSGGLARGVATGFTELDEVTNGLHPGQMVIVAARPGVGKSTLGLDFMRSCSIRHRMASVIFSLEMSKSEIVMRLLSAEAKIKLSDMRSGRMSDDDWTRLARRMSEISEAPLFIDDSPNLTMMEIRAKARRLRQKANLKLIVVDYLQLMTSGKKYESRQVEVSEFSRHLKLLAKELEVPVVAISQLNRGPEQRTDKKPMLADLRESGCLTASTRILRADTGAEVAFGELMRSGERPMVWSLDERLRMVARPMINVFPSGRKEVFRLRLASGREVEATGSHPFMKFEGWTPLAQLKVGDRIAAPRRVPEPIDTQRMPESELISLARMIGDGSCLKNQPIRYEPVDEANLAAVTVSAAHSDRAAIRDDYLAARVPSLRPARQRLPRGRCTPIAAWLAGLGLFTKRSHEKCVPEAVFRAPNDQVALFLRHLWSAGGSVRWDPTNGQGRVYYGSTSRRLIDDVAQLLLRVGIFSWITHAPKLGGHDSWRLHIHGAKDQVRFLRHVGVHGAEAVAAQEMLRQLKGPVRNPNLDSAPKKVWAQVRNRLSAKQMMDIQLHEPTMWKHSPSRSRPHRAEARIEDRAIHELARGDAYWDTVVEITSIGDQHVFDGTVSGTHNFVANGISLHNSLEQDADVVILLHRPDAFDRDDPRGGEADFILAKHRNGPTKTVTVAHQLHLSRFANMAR

[12] = molecular target: T3, Protein RecA (Mycobacterium tuberculosis, UniProt P9WHJ3); assay: Fluorescence Cell-Free Homogeneous Dose Retest to Identify Inhibitors of RecA-Intein Splicing Activity. [Related pubchem assays (depositor defined):AID2097, AID2223, AID489010, AID492950]; format: functional
T3 sequence (P9WHJ3 whole entry): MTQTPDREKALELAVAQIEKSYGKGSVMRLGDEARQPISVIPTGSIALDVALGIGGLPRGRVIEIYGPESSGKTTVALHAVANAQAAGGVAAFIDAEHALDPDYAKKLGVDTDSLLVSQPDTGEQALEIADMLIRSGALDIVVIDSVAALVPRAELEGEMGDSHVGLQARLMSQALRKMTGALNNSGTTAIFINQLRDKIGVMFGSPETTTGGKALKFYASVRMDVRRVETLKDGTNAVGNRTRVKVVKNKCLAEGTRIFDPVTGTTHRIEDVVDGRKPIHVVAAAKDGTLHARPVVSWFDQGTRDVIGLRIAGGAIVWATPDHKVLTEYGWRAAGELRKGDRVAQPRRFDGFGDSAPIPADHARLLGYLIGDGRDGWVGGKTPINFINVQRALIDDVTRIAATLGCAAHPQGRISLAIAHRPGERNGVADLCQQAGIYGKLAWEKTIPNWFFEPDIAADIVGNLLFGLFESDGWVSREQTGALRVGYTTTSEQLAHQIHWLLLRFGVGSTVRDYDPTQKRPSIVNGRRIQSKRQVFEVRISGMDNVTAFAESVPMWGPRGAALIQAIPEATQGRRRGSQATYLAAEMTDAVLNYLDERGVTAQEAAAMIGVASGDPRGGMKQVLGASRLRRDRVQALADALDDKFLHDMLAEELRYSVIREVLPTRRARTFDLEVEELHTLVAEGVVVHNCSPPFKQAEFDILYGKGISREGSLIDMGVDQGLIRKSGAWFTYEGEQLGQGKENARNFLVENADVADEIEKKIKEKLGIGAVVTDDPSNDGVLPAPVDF

[13] = molecular target: Eukaryotic translation initiation factor 4E (Mus musculus, UniProt P63073); assay: eIF4E–eIF4G protein interaction inhibitors, dose response, biochemical, TR-FRET (AID 855); format: functional;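 also: potency for disrupting eIF4E binding to eIF4GI seen as loss of FRET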
[14] = THP-1 cell cytotoxicity, dose response, cytotoxicity control for non-replicating M. tuberculosis project (AID 489025); format: functional
[15] = cells; format: functional
[16] = A549 cell cytotoxicity, dose response, cytotoxicity control, plate reader, cherry-pick, antagonist series (AID 743412); format: functional, cell-based
[17] = HepG2 cell cytotoxicity, dose response, cytotoxicity control, plate reader, cherry-pick, antagonist series (AID 743416); format: functional, cell-based
[18] = LGR2 antagonists, dose response, cell-based, HEK293, CRE-luciferase reporter, cherry pick, set 2 (AID 743343); format: functional;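 also: transfected cells were stimulated with diluted bursicon conditioned medium after compound addition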
[19] = MC4R antagonists, dose response, counter-screen for LGR2 antagonist project, cell-based, plate reader, cherry pick (AID 743444); format: functional;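 also: transfected HEK 293 cells stimulated with alpha-MSH peptide; potency of inhibitors of the alpha-MSH evoked signal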
[20] = HEK293 cell cytotoxicity, dose response, cytotoxicity control, plate reader, cherry-picked samples (AID 743446); format: functional, cell-based
[21] = molecular target: Cytochrome P450 2C19 (Homo sapiens, UniProt P33261); assay: Cytochrome panel assay with activity outcomes. Panel member name: p450-cyp2c19 Compounds with AC50 equal or less than 10 uM are considered active; format: functional; details: read-out: AC50
[22] = molecular target: T4, Cytochrome P450 1A2 (Homo sapiens, UniProt P05177);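 also: PubChem cytochrome P450 panel assay, CYP1A2 panel member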
T4 sequence (P05177 whole entry): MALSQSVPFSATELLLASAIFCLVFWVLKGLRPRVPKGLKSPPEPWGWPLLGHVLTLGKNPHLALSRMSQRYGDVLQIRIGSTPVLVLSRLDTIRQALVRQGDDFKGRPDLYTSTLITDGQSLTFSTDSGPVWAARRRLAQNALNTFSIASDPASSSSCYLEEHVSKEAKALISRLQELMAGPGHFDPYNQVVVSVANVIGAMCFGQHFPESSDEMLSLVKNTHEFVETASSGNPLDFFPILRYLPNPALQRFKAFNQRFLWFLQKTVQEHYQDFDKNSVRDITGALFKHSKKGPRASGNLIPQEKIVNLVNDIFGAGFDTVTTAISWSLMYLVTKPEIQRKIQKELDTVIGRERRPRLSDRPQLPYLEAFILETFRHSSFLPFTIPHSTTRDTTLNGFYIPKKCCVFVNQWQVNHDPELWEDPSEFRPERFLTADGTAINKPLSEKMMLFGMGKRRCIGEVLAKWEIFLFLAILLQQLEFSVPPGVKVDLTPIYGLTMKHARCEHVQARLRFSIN

[23] = molecular target: Cytochrome P450 3A4 (Homo sapiens, UniProt P08684);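 also: CYP3A4 tested as one member of a cytochrome P450 panel screen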
Cytochrome P450 3A4, sequence (P08684 whole entry): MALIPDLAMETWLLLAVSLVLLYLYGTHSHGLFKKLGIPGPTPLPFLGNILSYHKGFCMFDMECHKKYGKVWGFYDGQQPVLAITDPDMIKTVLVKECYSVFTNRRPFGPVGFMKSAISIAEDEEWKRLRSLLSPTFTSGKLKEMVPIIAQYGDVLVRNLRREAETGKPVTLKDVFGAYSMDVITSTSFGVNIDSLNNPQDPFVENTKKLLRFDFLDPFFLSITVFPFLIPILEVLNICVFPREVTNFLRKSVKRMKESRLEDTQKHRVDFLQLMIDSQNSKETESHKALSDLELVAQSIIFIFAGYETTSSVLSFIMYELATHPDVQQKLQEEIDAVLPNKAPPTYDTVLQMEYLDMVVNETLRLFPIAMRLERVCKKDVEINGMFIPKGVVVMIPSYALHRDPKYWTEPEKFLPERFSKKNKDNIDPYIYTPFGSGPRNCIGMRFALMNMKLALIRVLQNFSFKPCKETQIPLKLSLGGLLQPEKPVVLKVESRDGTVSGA

Eukaryotic translation initiation factor 4E, sequence (P63073 whole entry): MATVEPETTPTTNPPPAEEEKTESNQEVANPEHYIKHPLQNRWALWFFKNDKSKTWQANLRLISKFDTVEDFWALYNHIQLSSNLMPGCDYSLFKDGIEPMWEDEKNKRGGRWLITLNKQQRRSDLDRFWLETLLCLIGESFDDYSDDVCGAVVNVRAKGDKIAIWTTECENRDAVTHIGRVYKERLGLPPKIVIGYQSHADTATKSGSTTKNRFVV
Cytochrome P450 2C19, sequence (P33261 whole entry): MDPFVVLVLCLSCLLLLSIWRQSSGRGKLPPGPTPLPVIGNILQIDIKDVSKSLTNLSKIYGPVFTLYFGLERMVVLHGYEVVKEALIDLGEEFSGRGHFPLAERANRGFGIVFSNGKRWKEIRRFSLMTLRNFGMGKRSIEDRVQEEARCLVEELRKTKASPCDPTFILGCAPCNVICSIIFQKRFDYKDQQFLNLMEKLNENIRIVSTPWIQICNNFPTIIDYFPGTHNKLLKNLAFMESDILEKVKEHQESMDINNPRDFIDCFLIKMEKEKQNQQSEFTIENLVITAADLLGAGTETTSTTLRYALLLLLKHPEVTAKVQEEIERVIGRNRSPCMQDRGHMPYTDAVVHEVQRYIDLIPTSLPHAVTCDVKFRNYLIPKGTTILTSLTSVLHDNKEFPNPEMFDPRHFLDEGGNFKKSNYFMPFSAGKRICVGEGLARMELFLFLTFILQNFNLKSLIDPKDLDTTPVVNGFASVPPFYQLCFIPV

Compound: CCOc1ccc(S(=O)(=O)NCc2ccccn2)cc1NC(=O)c1ccccc1F
- EC50 [1]: 2.76 µM (active)
- EC50 [2]: 21.4 µM (active)
- EC50 [3]: 1.79 µM (active)
- EC50 [4]: 12.9 µM (inconclusive)
- IC50 [5]: > 80 µM (inactive)

Compound: CC1CCCN(C(=O)Cn2c(=O)oc3cc(S(=O)(=O)N4CCCCC4)ccc32)C1 (stereo unspecified)
- EC50 [6]: > 50 µM (active)

Compound: COC(=O)c1ccc(CSc2nc(C(F)(F)F)c3c(c2C#N)CCC3)o1
- IC50 [7]: > 100 µM (active)
- CC50 [8]: > 40 µM (active)

Compound: COC(=O)Nc1ccc(S(=O)(=O)N2c3ccccc3CCC2C)cc1 (stereo unspecified)
- AC50 [9]: 0.876 µM (active)
- IC50 [5]: > 80 µM (inactive)

Compound: Cc1cc(C)cc(N2CCN(C(=O)N3CCOCC3)CC2)c1
- EC50 [10]: > 50 µM (not active)

Compound: Cc1ccc(-c2ccc(C3C(C#N)=C(N)Oc4[nH]nc(C)c43)o2)cc1 (stereo unspecified)
- IC50 [7]: > 100 µM (active)
- AC50 [11]: > 380 µM (inactive)
- EC50 [12]: 4.25 µM (active)

Compound: O=C(CCS(=O)(=O)c1ccc(Br)cc1)N1CCN(Cc2ccccc2)CC1
- EC50 [10]: > 50 µM (not active)

Compound: CCOc1ccc(OCCSc2nc3ccccc3[nH]2)cc1
- EC50 [6]: > 50 µM (active)

Compound: COC(=O)/C=C/C(=O)N1CCN(c2ccccc2C)CC1
- IC50 [13]: > 64 µM (inactive)

Compound: Cc1ccnc(NC(=O)c2cc3ccccc3o2)c1
- IC50 [7]: > 50 µM (active)
- CC50 [8]: > 40 µM (active)
- CC50 [14]: > 40 µM (active)
- IC50 [15]: 19.3 µM (active)
- AC50 [16]: 30 µM (active)
- AC50 [17]: > 52 µM (inactive)
- AC50 [18]: 2.27 µM (active)
- AC50 [19]: 2.06 µM (active)
- AC50 [20]: 52 µM (active)

Compound: O=C(C1CCN(S(=O)(=O)c2cccnc2)CC1)N1CCN(c2cccc(Cl)c2)CC1
- IC50 [13]: > 64 µM (inactive)

Compound: O=C(CN(Cc1ccco1)C(=O)CNS(=O)(=O)c1ccc(Cl)cc1)NCc1ccc(F)cc1
- EC50 [6]: > 50 µM (active)

Compound: Cc1ccc(C)c(NC(=O)C2CC(O)CN2C(=O)OC(C)(C)C)c1 (stereo unspecified)
- EC50 [10]: > 50 µM (not active)
- AC50 [21]: 28.2 µM (inconclusive)
- AC50 [22]: 31.6 µM (inconclusive)
- AC50 [23]: 25.1 µM (inconclusive)

Compound: O=C(O)CCSc1nnc(SCC(=O)NCC(F)(F)F)s1
- IC50 [13]: > 64 µM (inactive)

Compound: C=CCN(C(=O)Cn1nnc2ccccc21)C(C(=O)NCCOC)c1ccc(OC)cc1OC (stereo unspecified)
- EC50 [10]: > 50 µM (not active)

Compound: Cc1c(Cl)cccc1N(CC(=O)O)S(C)(=O)=O
- EC50 [10]: > 50 µM (not active)

Compound: Cc1ccc(NC(=O)C(=O)NNC(=O)c2cccs2)cc1
- EC50 [6]: > 50 µM (active)
